The values below come from patent US11478474B2, “2-(3′-(hydroxymethyl)-1-methyl-5-((5-(2-methyl-4-(oxetan-3-yl)piperazin-1-yl)pyridin-2-yl)amino)-6-oxo-1,6-dihydro-[3,4′-bipyridin]-2′-yl)-7,7-dimethyl-7,8-dihydro-2H-cyclopenta[4,5]pyrrolo[1,2-a]pyrazin-1(6H)-one as a BTK inhibitor” (HUTCHISON MEDIPHARMA LIMITED, priority 2020, dated 2022).

This assay concerns the target BTK recombinant protein (Homo sapiens (Human), UniProt Q06187). Kind of assay: Determination of biochemical BTK (Z'-LYTE kinase assay). A digest of the protocol: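 Human BTK recombinant kinase (3.32 nM final) was preincubated with compound for 30 min at 4 °C. Reaction ran 1 h at room temperature with Tyr01 FRET peptide (2 μM) and ATP (32 μM); development protease then added. Coumarin 445 nm/fluorescein 520 nm emission ratio (400 nm excitation) gave inhibition across 8 concentrations, 3000–1.37 nM.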

The structures appear in SMILES notation. A value given as a limit tells only on which side of the number the result lay.

BTK recombinant protein, sequence (Q06187 whole entry): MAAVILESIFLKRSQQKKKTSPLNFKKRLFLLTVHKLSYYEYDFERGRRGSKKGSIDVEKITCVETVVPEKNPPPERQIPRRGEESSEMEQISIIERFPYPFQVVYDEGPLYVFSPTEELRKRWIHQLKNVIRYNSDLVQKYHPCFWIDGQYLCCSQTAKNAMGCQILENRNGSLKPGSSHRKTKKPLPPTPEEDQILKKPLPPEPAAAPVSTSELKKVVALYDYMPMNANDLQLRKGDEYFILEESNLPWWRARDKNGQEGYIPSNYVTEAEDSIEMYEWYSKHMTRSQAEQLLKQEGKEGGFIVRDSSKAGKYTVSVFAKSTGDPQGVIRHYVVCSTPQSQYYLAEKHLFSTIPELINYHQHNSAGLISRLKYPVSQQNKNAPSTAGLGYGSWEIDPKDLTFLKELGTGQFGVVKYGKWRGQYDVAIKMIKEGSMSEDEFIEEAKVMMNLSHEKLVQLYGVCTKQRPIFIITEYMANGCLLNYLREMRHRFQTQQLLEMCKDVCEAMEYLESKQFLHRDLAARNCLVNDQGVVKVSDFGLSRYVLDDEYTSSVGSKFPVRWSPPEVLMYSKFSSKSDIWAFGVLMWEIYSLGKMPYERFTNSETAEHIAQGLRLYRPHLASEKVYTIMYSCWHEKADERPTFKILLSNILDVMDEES

As a reminder, the IC50 is the concentration that gives 50% inhibition. Consider `C[C@H]1CN(C2COC2)CCN1c1cnc(Nc2cc(-c3ccnc(-n4ccn5c6c(cc5c4=O)CC(C)(C)C6)c3CO)cn(C)c2=O)cn1` [Compound 43], for which the IC50 turned out to be 9 nM.
The figure for `C[C@@H]1CN(c2ccc(Nc3cc(-c4ccnc(-n5ccn6c7c(cc6c5=O)CC(C)(C)C7)c4CO)cn(C)c3=O)nc2)[C@@H](C)CN1C1COC1` [Compound 27] is 7 nM.
The figure for `C[C@H]1CN(C2COC2)CCN1c1ccc(Nc2cc(-c3ccnc(-n4ccn5c6c(cc5c4=O)CC(C)(C)C6)c3CO)cn3c(F)cnc23)nc1` [Compound 23] is 44 nM; for `C[C@@H]1CN(c2ccc(Nc3cc(-c4ccnc(-n5ccn6c7c(cc6c5=O)CCC7)c4CO)cn(C)c3=O)nc2)[C@@H](C)CN1C1COC1` [Compound 2, 2-(5-((5-((2S,5R)-2,5-dimethyl-4-(oxetan-3-yl)piperazin-1-yl)pyridin-2-yl)amino)-3′-(hydroxymethyl)-1-methyl-6-oxo-1,6-dihydro-[3,4′-bispyridin]-2′-yl)-7,8-dihydro-2H-cyclopenta[4,5]pyrrolo[1,2-a]pyrazin-1(6H)-one] it is 9 nM; for `C[C@H]1CN(C2COC2)CCN1c1ccc(Nc2cc(-c3ccnc(-n4ncn5c6c(cc5c4=O)CC(C)(C)C6)c3CO)cn(C)c2=O)nc1` [Compound 79] it is < 1 nM.
The figure for `C[C@H]1CN(C2COC2)CCN1c1ccc(Nc2cc(-c3ccnc(-n4ccn5c6c(cc5c4=O)CC(C)(C)C6)c3CO)cn3ncnc23)nc1` [Compound 21] is 8 nM.
In the case of `COCCN(C)c1ccc(Nc2cc(-c3ccnc(-n4ccn5c6c(cc5c4=O)CC(C)(C)C6)c3CO)cn(C)c2=O)nc1` [Compound 50], the IC50 was determined as 24 nM.
In the case of `C[C@H]1CN(C2COC2)CCN1c1cnc(Nc2cc(-c3ccnc(-n4ccn5c6c(cc5c4=O)CC(C)(C)C6)c3CO)cn(C)c2=O)nc1` [Compound 44], the IC50 turned out to be 22 nM.
Consider `C[C@H]1CN(C2COC2)CCN1c1ccc(Nc2cc(-c3ccnc(-n4ccn5c6c(cc5c4=O)CCC6)c3CO)cn(C)c2=O)nc1` [Compound 64], for which the IC50 amounted to 20 nM.
The figure for `CN1CCN(C(=O)c2ccc(Nc3cc(-c4ccnc(-n5ccn6c7c(cc6c5=O)CC(C)(C)C7)c4CO)cn(C)c3=O)nc2)CC1` [Compound 48] is 4 nM.
For the molecule `Cn1cc(-c2ccnc(-n3ccn4c5c(cc4c3=O)CC(C)(C)C5)c2CO)cc(Nc2cn(CCF)nn2)c1=O` [Compound 31], the IC50 was 9 nM.
The figure for `C[C@@H]1CN(c2ccc(Nc3cc(-c4ccnc(-n5ccn6c(c(F)c7ccccc76)c5=O)c4CO)cn(C)c3=O)nc2)[C@@H](C)CN1C1COC1` [Compound 59] is 5 nM.
Under `Cn1cc(-c2ccnc(-n3ccn4c5c(cc4c3=O)CC(C)(C)C5)c2CO)cc(Nc2ccc(N3CCN(C4COC4)CC3)cn2)c1=O` [Compound 9] stands < 1 nM; under `Cn1cc(Nc2cc(-c3ccnc(-n4ccn5c6c(cc5c4=O)CC(C)(C)C6)c3CO)cn(C)c2=O)nn1` [Compound 28], 3 nM.
Under `C[C@H]1CN(C2COC2)CCN1c1ccc(Nc2cc(-c3ccnc(-n4ccn5c6c(cc5c4=O)CCC(F)(F)C6)c3CO)cn(C)c2=O)nc1` [Compound 56] stands 20 nM; under `CC1CCc2cc3c(=O)n(-c4nccc(-c5cc(Nc6ccc(N7CCN(C8COC8)C[C@@H]7C)cn6)c(=O)n(C)c5)c4CO)ccn3c2C1` (mixture of isomers) [Compound 78], 8 nM; under `C[C@H]1CN(C2COC2)CCN1c1ccc(Nc2cc(-c3ccnc(-n4ccn5c(cc6ccccc65)c4=O)c3CO)cn(C)c2=O)nc1` [Compound 74], 17 nM.
As for `C[C@H]1CN(C2COC2)CCN1c1ccc(Nc2cc(-c3ccnc(-n4cnn5c6c(cc5c4=O)CC(C)(C)C6)c3CO)cn(C)c2=O)nc1` [Compound 63], the IC50 was determined as 8 nM.
Under `C[C@H]1CN(C)CCN1c1ccc(Nc2cc(-c3ccnc(-n4ccn5c6c(cc5c4=O)CC(C)(C)C6)c3CO)cn(C)c2=O)nc1` [Compound 26] stands 7 nM; under `CCn1cc(Nc2cc(-c3ccnc(-n4ccn5c6c(cc5c4=O)CC(C)(C)C6)c3CO)cn3ncnc23)nn1` [Compound 71], 6 nM.
Consider `C[C@H]1CN(C2COC2)CCN1c1ccc(Nc2cc(-c3ccnc(-n4ccn5c6c(cc5c4=O)CC(C)(C)C6)c3CO)n[nH]c2=O)nc1` [Compound 49], for which the IC50 is 6 nM.
For the molecule `C[C@H]1CN(C2COC2)CCN1c1ccc(Nc2cc(-c3ccnc(-n4ccn5c(c(F)c6cc(F)ccc65)c4=O)c3CO)cn(C)c2=O)nc1` [Compound 60], the IC50 worked out at 4 nM.
Under `COCCN1CCN(c2ccc(Nc3cc(-c4ccnc(-n5ccn6c7c(cc6c5=O)CC(C)(C)C7)c4CO)cn(C)c3=O)nc2)[C@@H](C)C1` [Compound 8] stands 12 nM.
Consider `C[C@H]1CN(C2COC2)CCN1c1ccc(Nc2cc(-c3ccnc(-n4ccn5c(cc6cc(F)ccc65)c4=O)c3CO)cn(C)c2=O)nc1` [Compound 75], for which the half-maximal inhibitory concentration (IC50) was determined as 11 nM.
On to `C[C@H]1CN(C2COC2)CCN1c1ccc(Nc2cc(-c3ccnc(-n4ccn5c6c(cc5c4=O)CC(F)(F)CC6)c3CO)cn(C)c2=O)nc1` [Compound 58], for which the IC50 is 8 nM.
As for `C[C@H]1CN(C2COC2)CCN1c1ccc(Nc2cc(-c3ccnc(-n4ccn5c(c(F)c6ccccc65)c4=O)c3CO)cn(C)c2=O)nc1` [Compound 57], the IC50 was 6 nM.
